Calls of active or inactive are those of the source.
Assays:
Hexokinase = Hexokinase (Trypanosoma brucei, UniProt Q38C41); assay: Confirmation assay for inhibitors of Trypanosoma brucei hexokinase 1-Analogue-first series. [Related pubchem assays (depositor defined):AID1430, AID1632, AID2516, AID2560, AID2579, AID2600, AID449725, AID492951]; format: functional
HEK293 [1] = assay: NOD1 signaling inhibitors, primary screen, cell-based, luminescence, uHTS (AID 1578); format: functional; settings: Homo sapiens
HEK293 [2] = assay: cells; format: functional, cell-based; settings: Homo sapiens
[3] = target: Transitional endoplasmic reticulum ATPase (Homo sapiens, UniProt P55072, C522A); assay: C522A mutant p97 ATPase inhibitors, dose response, counter-screen for p97 inhibitor project, biochemical, luminescence (AID 1544)
HEK293 [4] = assay: cells; format: functional, cell-based; settings: Homo sapiens; remark: listed apart in the source
[5] = target: T1, Nucleotide-binding oligomerization domain-containing protein 2 (Homo sapiens, UniProt Q9HC29); assay: NOD2 signaling inhibitors, cell-based, luminescence, uHTS, HEK293 (AID 1566); format: functional
HEK293 [6] = assay: NOD2 signaling inhibitors in MDP-stimulated cells, cell-based, uHTS, luminescence (AID 2001); format: functional; settings: Homo sapiens
HEK293 [7] = assay: cells; format: functional, cell-based; settings: Homo sapiens; remark: listed apart in the source
[8] = target: Transitional endoplasmic reticulum ATPase (Homo sapiens, UniProt P55072); assay: p97 ATPase inhibitors, dose response, biochemical (AID 1534)
[9] = target: T1, Nucleotide-binding oligomerization domain-containing protein 2; assay: NOD2 inhibitors, SAR follow-up, set 2 (AID 2475); format: functional
Tumor necrosis factor [10] = target: T2, Tumor necrosis factor (Homo sapiens, UniProt P01375); assay: TNFa-triggered NF-kB activation inhibitors, SAR follow-up, cell-based, revised (AID 2337); format: functional
HEK293 [11] = assay: SAR analysis of compounds that are cytotoxic to HEK293 - Set 2. [Related pubchem assays (depositor defined):AID1575, AID1578, AID1849, AID2001, AID2333, AID2334, AID2335, AID2337, AID2800]; format: functional, cell-based; settings: Homo sapiens
[12] = target: T3, Nucleotide-binding oligomerization domain-containing protein 1 (Homo sapiens, UniProt Q9Y239); assay: NOD1 signaling inhibitors, SAR follow-up, revised (AID 2333); format: functional
T3 sequence (Q9Y239 whole entry): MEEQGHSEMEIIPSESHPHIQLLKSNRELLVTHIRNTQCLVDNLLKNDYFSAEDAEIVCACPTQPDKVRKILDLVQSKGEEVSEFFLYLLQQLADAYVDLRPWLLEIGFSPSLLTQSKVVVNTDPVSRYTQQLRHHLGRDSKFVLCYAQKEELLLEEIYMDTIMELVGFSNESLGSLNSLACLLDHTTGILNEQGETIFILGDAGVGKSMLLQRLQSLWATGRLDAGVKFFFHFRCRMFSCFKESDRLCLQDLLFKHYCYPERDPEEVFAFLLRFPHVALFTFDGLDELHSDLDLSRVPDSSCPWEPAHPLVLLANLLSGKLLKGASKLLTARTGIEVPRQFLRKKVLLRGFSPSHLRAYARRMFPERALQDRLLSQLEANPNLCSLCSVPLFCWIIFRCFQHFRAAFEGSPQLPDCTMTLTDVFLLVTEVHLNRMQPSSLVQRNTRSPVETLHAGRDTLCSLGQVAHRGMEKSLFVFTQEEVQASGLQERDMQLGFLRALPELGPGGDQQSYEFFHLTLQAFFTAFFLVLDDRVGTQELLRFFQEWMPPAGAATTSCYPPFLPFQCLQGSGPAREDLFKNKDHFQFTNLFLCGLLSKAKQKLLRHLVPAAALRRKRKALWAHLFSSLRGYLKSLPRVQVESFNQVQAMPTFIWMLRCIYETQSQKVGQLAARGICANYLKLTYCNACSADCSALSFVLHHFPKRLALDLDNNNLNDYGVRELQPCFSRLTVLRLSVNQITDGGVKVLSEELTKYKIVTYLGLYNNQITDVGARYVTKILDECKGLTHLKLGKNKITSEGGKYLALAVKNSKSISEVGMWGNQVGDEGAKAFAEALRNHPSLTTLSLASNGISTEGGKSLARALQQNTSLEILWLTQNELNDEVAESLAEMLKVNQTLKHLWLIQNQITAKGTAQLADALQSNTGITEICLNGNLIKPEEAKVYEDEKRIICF

[13] = target: T3, Nucleotide-binding oligomerization domain-containing protein 1; assay: SAR analysis of compounds that inhibit NOD1 - Set 2. [Related pubchem assays (depositor defined):AID1566, AID1575, AID1578, AID1849, AID1852, AID2333, AID2335, AID2798]; format: functional
Tumor necrosis factor [14] = target: T2, Tumor necrosis factor; assay: TNFa-triggered NF-kB activation inhibitors, SAR follow-up, cell-based, set 2 (AID 2483); format: functional
[15] = target: T1, Nucleotide-binding oligomerization domain-containing protein 2; assay: PubChem AID 2334; format: functional
HEK293 [16] = assay: cells; settings: Homo sapiens
Genome polyprotein = Genome polyprotein (Hepatitis C virus, UniProt Q2Q167); assay: HCV core protein dimerization inhibitors, dose response, biochemical, TR-FRET (AID 2159); design: species or system Hepacivirus hominis;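 also: blocks dimerization of HCV core protein measured by TR-FRET between tagged core106 pairs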
[17] = target: T4, Runt-related transcription factor 1/Core-binding factor subunit beta (Homo sapiens, UniProt Q01196+Q13951); assay: inhibitors of RUNX1 Runt–CBFb-SMMHC binding, primary screen, biochemical, FRET, Cerulean-Runt, Venus-CBFb-SMMHC, uHTS (AID 1434); format: protein assay;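 also: partner is the CBFb-SMMHC leukemia fusion protein rather than wild-type CBFb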
[18] = target: T4, Runt-related transcription factor 1/Core-binding factor subunit beta; assay: inhibitors of RUNX1 Runt–CBFb-SMMHC binding, biochemical, TR-FRET (AID 1438); format: protein assay

T1 sequence (Q9HC29 whole entry, the tested form may be a part): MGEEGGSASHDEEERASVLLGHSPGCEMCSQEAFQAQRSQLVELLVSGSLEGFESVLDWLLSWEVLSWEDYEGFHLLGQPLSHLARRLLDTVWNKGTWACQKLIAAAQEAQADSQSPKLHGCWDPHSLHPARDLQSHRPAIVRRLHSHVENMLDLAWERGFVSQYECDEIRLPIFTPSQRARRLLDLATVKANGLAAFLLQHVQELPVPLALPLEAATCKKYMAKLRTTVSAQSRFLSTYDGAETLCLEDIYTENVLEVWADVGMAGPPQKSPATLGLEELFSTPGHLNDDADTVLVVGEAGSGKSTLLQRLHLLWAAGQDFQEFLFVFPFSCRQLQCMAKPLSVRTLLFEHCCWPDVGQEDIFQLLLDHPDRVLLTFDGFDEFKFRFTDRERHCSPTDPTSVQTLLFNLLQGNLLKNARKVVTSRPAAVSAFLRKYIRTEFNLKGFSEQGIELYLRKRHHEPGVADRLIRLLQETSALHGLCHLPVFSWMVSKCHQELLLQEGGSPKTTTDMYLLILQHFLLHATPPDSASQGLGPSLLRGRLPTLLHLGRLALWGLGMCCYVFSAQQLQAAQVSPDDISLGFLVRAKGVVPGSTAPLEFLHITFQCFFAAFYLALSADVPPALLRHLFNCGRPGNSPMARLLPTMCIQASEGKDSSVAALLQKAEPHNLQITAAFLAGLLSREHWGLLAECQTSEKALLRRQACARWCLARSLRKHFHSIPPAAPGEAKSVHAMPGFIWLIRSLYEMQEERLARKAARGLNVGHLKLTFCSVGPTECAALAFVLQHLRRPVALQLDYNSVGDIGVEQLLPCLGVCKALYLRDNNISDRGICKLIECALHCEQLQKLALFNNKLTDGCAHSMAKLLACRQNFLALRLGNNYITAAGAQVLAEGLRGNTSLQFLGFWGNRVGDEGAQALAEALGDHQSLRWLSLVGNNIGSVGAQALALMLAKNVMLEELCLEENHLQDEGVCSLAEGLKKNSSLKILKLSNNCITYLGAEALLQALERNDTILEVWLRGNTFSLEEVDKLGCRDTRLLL
T4 sequence (Q01196 whole entry, the tested form may be a part): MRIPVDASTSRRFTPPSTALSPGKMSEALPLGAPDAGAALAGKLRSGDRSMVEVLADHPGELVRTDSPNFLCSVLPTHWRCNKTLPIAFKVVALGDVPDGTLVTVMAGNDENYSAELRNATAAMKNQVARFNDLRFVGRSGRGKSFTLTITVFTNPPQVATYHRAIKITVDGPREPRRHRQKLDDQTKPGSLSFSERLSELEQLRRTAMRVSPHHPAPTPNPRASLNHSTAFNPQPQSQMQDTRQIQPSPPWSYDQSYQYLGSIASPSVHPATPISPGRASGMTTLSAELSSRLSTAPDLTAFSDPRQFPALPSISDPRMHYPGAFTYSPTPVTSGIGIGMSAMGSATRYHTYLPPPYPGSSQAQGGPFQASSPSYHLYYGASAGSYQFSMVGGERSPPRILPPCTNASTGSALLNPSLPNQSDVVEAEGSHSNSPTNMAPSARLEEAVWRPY
T4 sequence (Q13951 whole entry, the tested form may be a part): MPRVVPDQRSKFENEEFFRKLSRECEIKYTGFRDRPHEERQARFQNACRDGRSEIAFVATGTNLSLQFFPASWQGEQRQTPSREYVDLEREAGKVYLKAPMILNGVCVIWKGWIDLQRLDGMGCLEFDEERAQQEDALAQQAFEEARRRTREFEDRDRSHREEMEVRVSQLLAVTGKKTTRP
T2 sequence (P01375 whole entry): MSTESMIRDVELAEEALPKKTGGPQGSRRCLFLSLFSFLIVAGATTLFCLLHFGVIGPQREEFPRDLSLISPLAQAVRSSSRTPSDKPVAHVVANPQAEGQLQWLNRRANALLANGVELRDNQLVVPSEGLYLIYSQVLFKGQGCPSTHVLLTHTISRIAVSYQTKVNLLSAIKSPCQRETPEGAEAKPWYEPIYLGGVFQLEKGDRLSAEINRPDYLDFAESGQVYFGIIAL
Chain of Genome polyprotein (Q2Q167 whole entry, the tested form may be a part): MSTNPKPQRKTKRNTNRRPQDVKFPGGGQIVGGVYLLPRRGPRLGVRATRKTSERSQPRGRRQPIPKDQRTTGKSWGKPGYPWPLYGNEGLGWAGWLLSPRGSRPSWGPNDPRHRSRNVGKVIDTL
Chain of Transitional endoplasmic reticulum ATPase (Homo sapiens, UniProt P55072) (P55072 whole entry, the tested form may be a part): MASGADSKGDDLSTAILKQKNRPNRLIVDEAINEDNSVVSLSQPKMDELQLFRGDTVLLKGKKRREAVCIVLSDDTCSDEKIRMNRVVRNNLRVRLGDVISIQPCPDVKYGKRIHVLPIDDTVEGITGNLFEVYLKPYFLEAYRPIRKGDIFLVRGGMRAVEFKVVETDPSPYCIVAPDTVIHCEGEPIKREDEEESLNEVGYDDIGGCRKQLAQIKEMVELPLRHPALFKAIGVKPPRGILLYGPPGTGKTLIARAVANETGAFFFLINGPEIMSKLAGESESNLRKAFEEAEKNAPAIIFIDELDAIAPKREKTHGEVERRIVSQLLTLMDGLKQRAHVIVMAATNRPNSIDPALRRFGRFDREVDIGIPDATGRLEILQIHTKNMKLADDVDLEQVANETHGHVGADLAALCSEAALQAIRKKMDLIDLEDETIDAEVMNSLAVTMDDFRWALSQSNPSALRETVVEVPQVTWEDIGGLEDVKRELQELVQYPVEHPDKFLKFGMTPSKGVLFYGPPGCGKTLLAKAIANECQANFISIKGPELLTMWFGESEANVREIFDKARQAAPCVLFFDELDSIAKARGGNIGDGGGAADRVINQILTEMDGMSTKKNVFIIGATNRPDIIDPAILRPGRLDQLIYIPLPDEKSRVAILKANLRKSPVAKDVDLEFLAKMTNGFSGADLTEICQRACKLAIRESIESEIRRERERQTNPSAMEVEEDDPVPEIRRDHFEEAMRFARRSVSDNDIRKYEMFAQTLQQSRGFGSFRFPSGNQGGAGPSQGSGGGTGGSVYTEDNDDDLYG
Chain of Hexokinase (Q38C41 whole entry): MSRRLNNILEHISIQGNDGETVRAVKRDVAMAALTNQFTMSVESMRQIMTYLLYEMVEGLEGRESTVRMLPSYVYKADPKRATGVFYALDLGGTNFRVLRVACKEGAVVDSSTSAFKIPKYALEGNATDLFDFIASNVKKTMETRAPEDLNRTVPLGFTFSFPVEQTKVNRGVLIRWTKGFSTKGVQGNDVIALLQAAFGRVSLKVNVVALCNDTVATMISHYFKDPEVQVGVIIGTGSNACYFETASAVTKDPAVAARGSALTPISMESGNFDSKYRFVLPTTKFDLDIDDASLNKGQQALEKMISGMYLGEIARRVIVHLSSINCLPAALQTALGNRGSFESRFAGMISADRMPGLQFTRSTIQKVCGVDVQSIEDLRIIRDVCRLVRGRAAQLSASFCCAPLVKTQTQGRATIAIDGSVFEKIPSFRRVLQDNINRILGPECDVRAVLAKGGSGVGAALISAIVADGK
Chain of Transitional endoplasmic reticulum ATPase (Homo sapiens, UniProt P55072, C522A) (P55072 2-806 C522A limits assumed): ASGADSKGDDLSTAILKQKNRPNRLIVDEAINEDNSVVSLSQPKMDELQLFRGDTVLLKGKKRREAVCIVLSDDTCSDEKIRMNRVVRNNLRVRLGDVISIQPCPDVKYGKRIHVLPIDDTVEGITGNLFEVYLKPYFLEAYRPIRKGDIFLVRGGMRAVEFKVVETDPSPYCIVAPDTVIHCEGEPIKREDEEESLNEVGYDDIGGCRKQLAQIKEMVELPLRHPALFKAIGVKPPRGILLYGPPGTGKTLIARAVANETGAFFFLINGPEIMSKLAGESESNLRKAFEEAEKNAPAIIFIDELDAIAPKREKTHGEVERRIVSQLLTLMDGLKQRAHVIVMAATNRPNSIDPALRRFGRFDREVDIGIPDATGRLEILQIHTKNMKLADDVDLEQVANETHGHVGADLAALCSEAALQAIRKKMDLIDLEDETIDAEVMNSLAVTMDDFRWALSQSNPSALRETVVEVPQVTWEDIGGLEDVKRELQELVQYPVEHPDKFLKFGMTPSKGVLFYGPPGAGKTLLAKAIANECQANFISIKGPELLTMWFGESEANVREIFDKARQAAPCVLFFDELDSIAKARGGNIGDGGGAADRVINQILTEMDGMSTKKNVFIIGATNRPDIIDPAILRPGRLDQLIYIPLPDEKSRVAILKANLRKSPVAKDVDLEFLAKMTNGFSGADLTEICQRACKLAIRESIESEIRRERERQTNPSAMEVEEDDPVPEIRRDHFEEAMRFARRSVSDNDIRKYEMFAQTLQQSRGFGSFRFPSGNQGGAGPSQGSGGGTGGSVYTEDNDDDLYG

For `O=c1cc(-c2ccccc2)sn1-c1ccccc1`, the IC50 (Hexokinase) was > 25 µM (inactive).
For `Cc1ccc(C)c(SCC(=O)OC/C(O)=C(\C#N)c2nc3ccccc3[nH]2)c1`, the EC50 (HEK293 [1]) was > 20 µM (inactive), the IC50 (HEK293 [2]) was > 20 µM (inactive) and the IC50 [3] was > 50 µM (not active). The IC50 (HEK293 [4]) was > 20 µM (inactive), the EC50 [5] was > 20 µM (inactive) and the IC50 (HEK293 [6]) was 4.92 µM (inactive). The IC50 (HEK293 [7]) was > 20 µM (inactive), the IC50 [8] was > 50 µM (not active) and the IC50 [9] was 4.21 µM (active). For the same compound, the IC50 (Tumor necrosis factor [10]) was > 20 µM (inactive), the IC50 (HEK293 [11]) was > 20 µM (inactive) and the IC50 [12] was > 20 µM (inactive). For the same compound, the IC50 [13] was 4.55 µM (active), the IC50 (Tumor necrosis factor [14]) was > 20 µM (inactive) and the IC50 [15] was > 20 µM (inactive). The IC50 (HEK293 [16]) was > 20 µM (inactive).
`Cc1cccc(C(=O)/N=c2\c(C#N)cc3c(=O)n4cccc(C)c4nc3n2Cc2ccco2)c1` was tested, and the IC50 (Genome polyprotein) was > 49.8 µM (not active), the IC50 [17] was 429 nM (active) and the IC50 [18] was 6.54 µM (active).
